# How the values were obtained:
# Assay type in all cases: cell-based
# HepG2 (liver cancer) = assay: MTT assay, viability of HepG2 at 500 nm; design: value of the treated group, Mean value: unit not given here
# Procedure: (§1) Similarly, MTT assay was performed for lung cancer cell line A549 and liver cancer cell line HepG2. But, MTT solutions were added instead of XTT solutions; as a culture medium, RPMI1640 with L-glutamine (300 mg/L), 25 mM HEPES and 25 mM NaHCO3 90% and heat-inactivated fetal bovine serum (FBS) 10% was used for A549, and minimum essential medium, 25 mM HEPES and 25 mM NaHCO3 90% and heat-inactivated fetal bovine serum (FBS) 10% was used for HepG2; and MTT values were measured at 1 d, 2 d, 3 d and 4 d, respectively.
# (§2) In the following, the values for the composition of the invention indicate the mean value of values obtained using the extracts of the Examples 1 to 3.
# The following Table 7 and FIG. 12 show the value of the treated group determined in cell line HepG2.
# A549 (lung cancer) = assay: MTT assay, viability of A549 at 500 nm; design: value of the treated group, Mean value: unit not given here
# Procedure: as §1, §2
# The following Table 6 and FIG. 11 show the value of the treated group determined in cell line A549.
# [1] = system: MDA-MB-231 (breast cancer); assay: XTT assay, viability of MDA-MB-231 at 450 nm; design: key to value of [the treated group−the blank group], Mean value: absorbance at 450 nm, treated minus blank
# Procedure: (§3) Each of 5×10^3 breast cancer cells MDA-MB-231 and TTU-1 were seeded in a 96-well flat-bottomed microplate, and cultured in CO2 incubator. Cells were seeded in a 96-well tissue culture plate at a density of 10,000 cells for normal cells and 5,000 cells for cancer cells. DMEM plus 10% fetal bovine serum was used as a culture medium. At 24 hours after seeding, the extracts obtained in the Examples 1 to 3 were added to each well. At 12 hours after added the extracts, XTT solutions were added and then the cells were incubated for 2 hours. After that, absorbance value were measured using microplate spectrophotometer at a wavelength of 450 nm. In addition, Annexin-V/PI-stained MDA-MB-231 and TTU-1 cells were photographed and observed.
# as §2
# The following Table 4 and FIG. 9 show the value of [the treated group−the blank group] determined in cell line MDA-MB-231.
# TTU-1 (breast cancer) = assay: XTT assay, viability of TTU-1 at 450 nm
# Procedure: as §3, with “[…] […]” for “At 24 hours after seeding, the extracts obtained in the Examples 1 to 3 were added to each well. At 12 hours after added the extracts, XTT solutions were added and then the cells were incubated for 2 hours.”
smiles,measurement,setting,value
"O=c1[nH]cc(F)c(=O)[nH]1 [Example 5-FU, 5-FU]","value of the treated group, Mean value","HepG2 (liver cancer); 1,000 ppm, 24 h",2.867
same,"value of the treated group, Mean value","HepG2 (liver cancer); 1,000 ppm, 48 h",1.998
same,"value of the treated group, Mean value","HepG2 (liver cancer); 1,000 ppm, 72 h",1.853
same,"value of the treated group, Mean value","HepG2 (liver cancer); 1,000 ppm, 96 h",0.938
same,"value of the treated group, Mean value","A549 (lung cancer); 1,000 ppm, 24 h",2.298
same,"value of the treated group, Mean value","A549 (lung cancer); 1,000 ppm, 48 h",1.697
same,"value of the treated group, Mean value","A549 (lung cancer); 1,000 ppm, 72 h",0.863
same,"value of the treated group, Mean value","A549 (lung cancer); 1,000 ppm, 96 h",0.42
CC(=O)O[C@H]1C(=O)[C@@]2(C)[C@H]([C@H](OC(=O)c3ccccc3)[C@]3(O)C[C@H](OC(=O)[C@H](O)[C@@H](NC(=O)c4ccccc4)c4ccccc4)C(C)=C1C3(C)C)[C@]1(OC(C)=O)CO[C@@H]1C[C@@H]2O [Taxol],course of the value as time goes by (FIG. 12),HepG2 (liver cancer),increasing
same,"value of the treated group, Mean value","HepG2 (liver cancer); 35.1 uM/ml, 24 h",2.73
same,"value of the treated group, Mean value","HepG2 (liver cancer); 35.1 uM/ml, 48 h",2.604
same,"value of the treated group, Mean value","HepG2 (liver cancer); 35.1 uM/ml, 72 h",2.506
same,"value of the treated group, Mean value","HepG2 (liver cancer); 35.1 uM/ml, 96 h",2.546
same,"value of the treated group, Mean value","HepG2 (liver cancer); 70.2 uM/ml, 24 h",2.71
same,"value of the treated group, Mean value","HepG2 (liver cancer); 70.2 uM/ml, 48 h",2.595
same,"value of the treated group, Mean value","HepG2 (liver cancer); 70.2 uM/ml, 72 h",2.466
same,"value of the treated group, Mean value","HepG2 (liver cancer); 70.2 uM/ml, 96 h",2.389
same,course of the value as time goes by (FIG. 11),A549 (lung cancer),increasing
same,"value of the treated group, Mean value","A549 (lung cancer); 35.1 uM/ml, 24 h",2.438
same,"value of the treated group, Mean value","A549 (lung cancer); 35.1 uM/ml, 48 h",2.753
same,"value of the treated group, Mean value","A549 (lung cancer); 35.1 uM/ml, 72 h",2.6
same,"value of the treated group, Mean value","A549 (lung cancer); 35.1 uM/ml, 96 h",2.934
same,"value of the treated group, Mean value","A549 (lung cancer); 70.2 uM/ml, 24 h",2.488
same,"value of the treated group, Mean value","A549 (lung cancer); 70.2 uM/ml, 48 h",2.911
same,"value of the treated group, Mean value","A549 (lung cancer); 70.2 uM/ml, 72 h",2.691
same,"value of the treated group, Mean value","A549 (lung cancer); 70.2 uM/ml, 96 h",2.98
same,course of the value as time goes by (FIG. 9),[1],increasing
same,"value of [the treated group−the blank group], Mean value","[1]; 1.2 × 10^−7M, 12 h",0.074
same,"value of [the treated group−the blank group], Mean value","[1]; 1.2 × 10^−7M, 84 h",0.107
same,"value of [the treated group−the blank group], Mean value","[1]; 1.2 × 10^−7M, 108 h",−0.006
same,"value of [the treated group−the blank group], Mean value","[1]; 1.2 × 10^−7M, 132 h",0.034
same,"value of [the treated group−the blank group], Mean value","[1]; 2.5 × 10^−6M, 12 h",0.076
same,"value of [the treated group−the blank group], Mean value","[1]; 2.5 × 10^−6M, 84 h",0.085
same,"value of [the treated group−the blank group], Mean value","[1]; 2.5 × 10^−6M, 108 h",0.024
same,"value of [the treated group−the blank group], Mean value","[1]; 2.5 × 10^−6M, 132 h",−0.007
same,course of the value as time goes by (FIG. 10),TTU-1 (breast cancer),increasing
same,"value of [the treated group−the blank group], Mean value","TTU-1 (breast cancer); 1.2 × 10^−7M, 12 h",0.079
same,"value of [the treated group−the blank group], Mean value","TTU-1 (breast cancer); 1.2 × 10^−7M, 84 h",0.123
same,"value of [the treated group−the blank group], Mean value","TTU-1 (breast cancer); 1.2 × 10^−7M, 108 h",0.012
same,"value of [the treated group−the blank group], Mean value","TTU-1 (breast cancer); 1.2 × 10^−7M, 132 h",0.084
same,"value of [the treated group−the blank group], Mean value","TTU-1 (breast cancer); 2.5 × 10^−6M, 12 h",0.067
same,"value of [the treated group−the blank group], Mean value","TTU-1 (breast cancer); 2.5 × 10^−6M, 108 h",−0.002
same,"value of [the treated group−the blank group], Mean value","TTU-1 (breast cancer); 2.5 × 10^−6M, 132 h",0.035

# From patent US20120015056A1, “COMPOSITION COMPRISING EXTRACTS OR FRACTIONS OF SPECIFIC PLANTS, USE THEREOF AND PROCESS FOR PREPARING THE EXTRACTS” (priority 2010, published 2012)
